Experimental data published in PubChem BioAssay (NCI).
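Growth conditions: 96-well plates. Treatment: test compound, 48 hours, 5 concentrations. Analysis: linear interpolation between bracketing concentrations; unreached endpoints set to highest concentration. The concentration for 50% growth inhibition is given as GI50. TGI denotes the concentration required for complete inhibition of growth.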

What was measured:
Assay in all cases: NCI-60 cell line screen, 48 h
786-0 renal = test system: 786-0 renal
A498 renal = test system: A498 renal
A549 NSCLC = test system: A549 NSCLC
ACHN renal = test system: ACHN renal
BT-549 breast = test system: BT-549 breast
CAKI-1 renal = test system: CAKI-1 renal
CCRF-CEM leukemia = test system: CCRF-CEM leukemia
COLO 205 colon = test system: COLO 205 colon
DU-145 prostate = test system: DU-145 prostate
EKVX NSCLC = test system: EKVX NSCLC
HCC-2998 colon = test system: HCC-2998 colon
HCT-116 colon = test system: HCT-116 colon
HCT-15 colon = test system: HCT-15 colon
HL-60(TB) leukemia = test system: HL-60(TB) leukemia
HOP-62 NSCLC = test system: HOP-62 NSCLC
HOP-92 NSCLC = test system: HOP-92 NSCLC
HS 578T breast = test system: HS 578T breast
HT29 colon = test system: HT29 colon
IGROV1 ovarian = test system: IGROV1 ovarian
K-562 leukemia = test system: K-562 leukemia
KM12 colon = test system: KM12 colon
LOX IMVI melanoma = test system: LOX IMVI melanoma
M14 melanoma = test system: M14 melanoma
MALME-3M melanoma = test system: MALME-3M melanoma
MCF7 breast = test system: MCF7 breast
MDA-MB-231 breast = test system: MDA-MB-231 breast
MDA-MB-435 = test system: MDA-MB-435
MDA-MB-468 breast = test system: MDA-MB-468 breast
MOLT-4 leukemia = test system: MOLT-4 leukemia
NCI-H226 lung = test system: NCI-H226 lung
NCI-H23 lung = test system: NCI-H23 lung
NCI-H460 lung = test system: NCI-H460 lung
NCI-H522 lung = test system: NCI-H522 lung
NCI/ADR-RES ovarian = test system: NCI/ADR-RES ovarian
OVCAR-3 ovarian = test system: OVCAR-3 ovarian
OVCAR-4 ovarian = test system: OVCAR-4 ovarian
OVCAR-5 ovarian = test system: OVCAR-5 ovarian
OVCAR-8 ovarian = test system: OVCAR-8 ovarian
PC-3 prostate = test system: PC-3 prostate
RPMI-8226 leukemia = test system: RPMI-8226 leukemia
RXF 393 renal = test system: RXF 393 renal
SF-268 CNS = test system: SF-268 CNS
SF-295 CNS = test system: SF-295 CNS
SF-539 CNS = test system: SF-539 CNS
SK-MEL-2 melanoma = test system: SK-MEL-2 melanoma
SK-MEL-28 melanoma = test system: SK-MEL-28 melanoma
SK-MEL-5 melanoma = test system: SK-MEL-5 melanoma
SK-OV-3 ovarian = test system: SK-OV-3 ovarian
SN12C renal = test system: SN12C renal
SNB-19 CNS = test system: SNB-19 CNS
SNB-75 CNS = test system: SNB-75 CNS
SR leukemia = test system: SR leukemia
SW-620 colon = test system: SW-620 colon
T-47D breast = test system: T-47D breast
TK-10 renal = test system: TK-10 renal
U251 CNS = test system: U251 CNS
UACC-257 melanoma = test system: UACC-257 melanoma
UACC-62 melanoma = test system: UACC-62 melanoma
UO-31 renal = test system: UO-31 renal

CCOc1ccccc1[C@H]1C(C(=O)c2ccc(Cl)cc2)C2(N[C@@H]1c1ccccc1)C(=O)Nc1ccccc12 (stereo partly drawn)
GI50 (786-0 renal): 8.94 µM
TGI (786-0 renal): > 39.8 µM
GI50 (A498 renal): 7.7 µM
TGI (A498 renal): 20.7 µM
GI50 (A549 NSCLC): 10.4 µM
TGI (A549 NSCLC): > 39.8 µM
GI50 (ACHN renal): 10.1 µM
TGI (ACHN renal): > 39.8 µM
GI50 (BT-549 breast): 6.89 µM
TGI (BT-549 breast): 22.8 µM
GI50 (CAKI-1 renal): 4.08 µM
TGI (CAKI-1 renal): > 39.8 µM
GI50 (CCRF-CEM leukemia): 29.2 µM
TGI (CCRF-CEM leukemia): > 39.8 µM
GI50 (COLO 205 colon): 6.82 µM
TGI (COLO 205 colon): 14 µM
GI50 (DU-145 prostate): 13.1 µM
TGI (DU-145 prostate): > 39.8 µM
GI50 (EKVX NSCLC): 8.62 µM
TGI (EKVX NSCLC): > 39.8 µM
GI50 (HCC-2998 colon): 7.9 µM
TGI (HCC-2998 colon): 29.8 µM
GI50 (HCT-116 colon): 6.75 µM
TGI (HCT-116 colon): > 39.8 µM
GI50 (HCT-15 colon): 8.87 µM
TGI (HCT-15 colon): > 39.8 µM
GI50 (HL-60(TB) leukemia): 5.6 µM
TGI (HL-60(TB) leukemia): 32.4 µM
GI50 (HOP-62 NSCLC): 18.9 µM
TGI (HOP-62 NSCLC): > 39.8 µM
GI50 (HOP-92 NSCLC): 6.65 µM
TGI (HOP-92 NSCLC): 29.3 µM
GI50 (HS 578T breast): 6.08 µM
TGI (HS 578T breast): 22.9 µM
GI50 (HT29 colon): 7.26 µM
TGI (HT29 colon): 36.1 µM
GI50 (IGROV1 ovarian): 8.69 µM
TGI (IGROV1 ovarian): > 39.8 µM
GI50 (K-562 leukemia): 9.06 µM
TGI (K-562 leukemia): > 39.8 µM
GI50 (KM12 colon): 11.3 µM
TGI (KM12 colon): > 39.8 µM
GI50 (LOX IMVI melanoma): 2.85 µM
TGI (LOX IMVI melanoma): 10.3 µM
GI50 (M14 melanoma): 7.69 µM
TGI (M14 melanoma): > 39.8 µM
GI50 (MALME-3M melanoma): 7.4 µM
TGI (MALME-3M melanoma): 18.6 µM
GI50 (MCF7 breast): 6.78 µM
TGI (MCF7 breast): > 39.8 µM
GI50 (MDA-MB-231 breast): 5.37 µM
TGI (MDA-MB-231 breast): 34.3 µM
GI50 (MDA-MB-435): 4.06 µM
TGI (MDA-MB-435): 16.3 µM
GI50 (MDA-MB-468 breast): 1.31 µM
TGI (MDA-MB-468 breast): 8.19 µM
GI50 (MOLT-4 leukemia): 4.68 µM
TGI (MOLT-4 leukemia): > 39.8 µM
GI50 (NCI-H226 lung): 5.44 µM
TGI (NCI-H226 lung): 18.5 µM
GI50 (NCI-H23 lung): 7.78 µM
TGI (NCI-H23 lung): > 39.8 µM
GI50 (NCI-H460 lung): 8 µM
TGI (NCI-H460 lung): 21.5 µM
GI50 (NCI-H522 lung): 6.14 µM
TGI (NCI-H522 lung): 22.8 µM
GI50 (NCI/ADR-RES ovarian): 5.64 µM
TGI (NCI/ADR-RES ovarian): 16.6 µM
GI50 (OVCAR-3 ovarian): 7.68 µM
TGI (OVCAR-3 ovarian): > 39.8 µM
GI50 (OVCAR-4 ovarian): 14.8 µM
TGI (OVCAR-4 ovarian): > 39.8 µM
GI50 (OVCAR-5 ovarian): 10.1 µM
TGI (OVCAR-5 ovarian): > 39.8 µM
GI50 (OVCAR-8 ovarian): 11.9 µM
TGI (OVCAR-8 ovarian): > 39.8 µM
GI50 (PC-3 prostate): 2.77 µM
TGI (PC-3 prostate): > 39.8 µM
GI50 (RPMI-8226 leukemia): 8.82 µM
TGI (RPMI-8226 leukemia): > 39.8 µM
GI50 (RXF 393 renal): 5.35 µM
TGI (RXF 393 renal): 19.2 µM
GI50 (SF-268 CNS): 12.2 µM
TGI (SF-268 CNS): > 39.8 µM
GI50 (SF-295 CNS): 7.88 µM
TGI (SF-295 CNS): > 39.8 µM
GI50 (SF-539 CNS): 23.3 µM
TGI (SF-539 CNS): > 39.8 µM
GI50 (SK-MEL-2 melanoma): 7.37 µM
TGI (SK-MEL-2 melanoma): 17.5 µM
GI50 (SK-MEL-28 melanoma): 17.4 µM
TGI (SK-MEL-28 melanoma): > 39.8 µM
GI50 (SK-MEL-5 melanoma): 6.1 µM
TGI (SK-MEL-5 melanoma): 12.2 µM
GI50 (SK-OV-3 ovarian): 22.1 µM
TGI (SK-OV-3 ovarian): > 39.8 µM
GI50 (SN12C renal): 5.56 µM
TGI (SN12C renal): 11.9 µM
GI50 (SNB-19 CNS): 16.6 µM
TGI (SNB-19 CNS): > 39.8 µM
GI50 (SNB-75 CNS): 6.24 µM
TGI (SNB-75 CNS): > 39.8 µM
GI50 (SR leukemia): 9.21 µM
TGI (SR leukemia): > 39.8 µM
GI50 (SW-620 colon): 10.1 µM
TGI (SW-620 colon): > 39.8 µM
GI50 (T-47D breast): 6.48 µM
TGI (T-47D breast): > 39.8 µM
GI50 (TK-10 renal): 15.6 µM
TGI (TK-10 renal): > 39.8 µM
GI50 (U251 CNS): 13 µM
TGI (U251 CNS): > 39.8 µM
GI50 (UACC-257 melanoma): 8.91 µM
TGI (UACC-257 melanoma): > 39.8 µM
GI50 (UACC-62 melanoma): 4.65 µM
TGI (UACC-62 melanoma): 18.2 µM
GI50 (UO-31 renal): 5.82 µM
TGI (UO-31 renal): > 39.8 µM
